# Measured values reported in patent US20230063794A1, “STAPLED TRIAZOLE CO-AGONISTS OF THE GLUCAGON AND GLP-1 RECEPTORS” (Merck Sharp & Dohme LLC, priority 2019, published 2023).
# Starred links: 1 amine or outer side, 2 acyl side, 3 side chain; linkers in the order of their positions; H or OH if unused. Positions of bridges follow the written chain, without caps; N, C: chain ends. Non-standard residues stand in square brackets, D forms with d. Residues, ends and D or L forms follow the SMILES beside them. Groups on a side chain read outwards from the residue. Triazole bridges read from a SMILES are 1,4-linked. *: point of attachment. Lys(N3) = [N-]=[N+]=NCCCC[C@H](N)C(=O)O; γGlu = O=C(O)[C@H](CCC(=O)[*:2])N[*:1]; Palmitoyl = CCCCCCCCCCCCCCCC(=O)*; dPra = C#CC[C@@H](N)C(=O)O; Nle = CCCC[C@H](N)C(=O)O; Aib = CC(C)(N)C(=O)O
# Columns and labels:
# human GLP1R = biological target: T1, human GLP1R (Homo sapiens, UniProt P43220); assay: cAMP activity assay in cells expressing human GLP1R; format: cell-based; settings: cAMP production, HitHunter cAMPXS, 1 hour; assay buffer with or without 20% human serum (not given)
# T1 construct: expressed in transfected cells; grown under Blasticidin and Hygromycin selection
# Method: (§1) Activity of the peptides at the Glucagon receptor (GCGR) and GLP-1 receptor (GLP1R) was measured in a cAMP activity assay.
# (§2) Peptides were dissolved in 100% DMSO and serially diluted to generate 10 point titrations. The peptide solutions were then transferred into 384-well assay plates (150 nL/well). Assay ready frozen cells expressing human GLP1R or human GCGR were suspended in growth media consisting of DMEM medium (GIBCO), 10% FBS (GIBCO), 1× NEAA(GIBCO), 1× P/S (GIBCO), 10 ug/ml Blasticidin (GIBCO) and 200 μg/mL Hygromycin (GIBCO). Cells were then diluted in assay buffer consisting of PBS (GIBCO), 7.5% BSA (Perkin Elmer), 100 μM RO 20-1724 (Sigma), with or without 20% human serum (MP Biomedical). The cell suspensions (15 μL) were then added to the assay plates containing the peptide solutions (30,000 cells/well for human GCGR; 10,000 cells/well for human GLP1R). The cells were incubated for 1 hour at room temperature in the dark. Production of cAMP was determined using HitHunter™ cAMPXS kits (DiscoverX) following manufacturer protocol. The plates were incubated for overnight at room temperature in the dark. Luminescence was measured using an EnVision Multilabel plate reader (Perkin Elmer). Native GLP-1 and Glucagon (Bachem) are used as control peptides. EC50 values were calculated using uses a 4 parameter logistic fit based on the Levenberg-Marquardt algorithm.
# human GCGR = biological target: T2, human GCGR (Homo sapiens, UniProt P47871); assay: cAMP activity assay in cells expressing human GCGR; format: cell-based; settings: ratio of human GCGR EC50 to human GLP1R EC50
# T2 construct: expressed in transfected cells; grown under Blasticidin and Hygromycin selection
# Method: as §1, §2
# T2 sequence (P47871 26-477): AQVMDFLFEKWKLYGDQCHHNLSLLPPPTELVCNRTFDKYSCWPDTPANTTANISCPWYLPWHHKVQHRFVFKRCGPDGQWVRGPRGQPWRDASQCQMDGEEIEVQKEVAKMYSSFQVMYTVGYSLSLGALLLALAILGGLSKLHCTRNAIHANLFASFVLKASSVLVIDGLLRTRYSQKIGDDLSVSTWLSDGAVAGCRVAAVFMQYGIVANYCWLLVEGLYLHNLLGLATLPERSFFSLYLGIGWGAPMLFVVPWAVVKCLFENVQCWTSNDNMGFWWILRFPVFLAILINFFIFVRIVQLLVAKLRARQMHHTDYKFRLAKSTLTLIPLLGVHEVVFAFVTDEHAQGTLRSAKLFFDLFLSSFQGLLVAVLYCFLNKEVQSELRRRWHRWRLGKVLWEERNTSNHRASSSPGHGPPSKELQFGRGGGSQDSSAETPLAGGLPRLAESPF
# T1 sequence (P43220 24-463): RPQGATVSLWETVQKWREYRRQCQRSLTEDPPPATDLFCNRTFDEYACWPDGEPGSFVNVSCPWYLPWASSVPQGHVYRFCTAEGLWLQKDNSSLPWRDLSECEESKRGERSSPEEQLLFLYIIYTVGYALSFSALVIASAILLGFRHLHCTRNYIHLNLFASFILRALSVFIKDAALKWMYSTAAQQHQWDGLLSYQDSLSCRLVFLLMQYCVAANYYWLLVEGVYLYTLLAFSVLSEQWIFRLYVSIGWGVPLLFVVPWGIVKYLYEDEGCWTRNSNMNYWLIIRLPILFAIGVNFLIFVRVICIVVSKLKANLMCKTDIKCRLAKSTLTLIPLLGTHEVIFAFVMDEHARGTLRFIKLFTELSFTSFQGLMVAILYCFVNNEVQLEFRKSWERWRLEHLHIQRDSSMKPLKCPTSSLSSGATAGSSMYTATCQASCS
Structure (SMILES),EC50 (human GLP1R) [nM],hGCGR/hGLP1R (hTone) (human GCGR)
CCCCCCCCCCCCCCCC(=O)N[C@@H](CCC(=O)N[C@@H](CCC(=O)NCCCC[C@H](NC(=O)[C@H](CC(=O)O)NC(=O)[C@H](CO)NC(=O)[C@@H](NC(=O)[C@H](Cc1ccccc1)NC(=O)[C@@H](NC(=O)CNC(=O)[C@H](CCC(N)=O)NC(=O)[C@@H](CO)NC(=O)[C@@H](N)Cc1c[nH]cn1)[C@@H](C)O)[C@@H](C)O)C(=O)N[C@@H](CO)C(=O)N[C@@H](CCCCN)C(=O)N[C@@H](Cc1ccc(O)cc1)C(=O)N[C@@H](CC(C)C)C(=O)N[C@@H](CC(=O)O)C(=O)N[C@@H](CCC(=O)O)C(=O)N[C@@H](CCCNC(=N)N)C(=O)N[C@@H](C)C(=O)N[C@@H](C)C(=O)N[C@@H]1Cc2cn(nn2)CCCC[C@@H](C(=O)N[C@@H](Cc2c[nH]c3ccccc23)C(=O)N[C@@H](CC(C)C)C(=O)N[C@@H](CC(C)C)C(=O)N[C@@H](CC(=O)O)C(=O)N[C@H](C(N)=O)[C@@H](C)O)NC(=O)[C@H](C(C)C)NC(=O)[C@H](Cc2ccccc2)NC(=O)[C@H](CC(=O)O)NC1=O)C(=O)O)C(=O)O [compound 7] (H-H[dS]QGTFTSDK([γGlu-γGlu-Palmitoyl])SKYLDERAA[dPra]DFV[Lys(N3)]WLLDT-NH2; triazole 20-24),0.042,0.95
CCCCCCCCCCCCCCCC(=O)N[C@@H](CCC(=O)N[C@@H](CCC(=O)NCCCC[C@H](NC(=O)[C@H](CC(=O)O)NC(=O)[C@H](CO)NC(=O)[C@@H](NC(=O)[C@H](Cc1ccccc1)NC(=O)[C@@H](NC(=O)CNC(=O)[C@H](CCC(N)=O)NC(=O)C(C)(C)NC(=O)[C@@H](N)Cc1c[nH]cn1)[C@@H](C)O)[C@@H](C)O)C(=O)N[C@@H](CO)C(=O)N[C@@H](CCCCN)C(=O)N[C@@H](Cc1ccc(O)cc1)C(=O)N[C@@H](CC(C)C)C(=O)N[C@@H](CC(=O)O)C(=O)N[C@@H]1Cc2cn(nn2)CCCC[C@@H](C(=O)N[C@@H](CC(=O)O)C(=O)N[C@@H](Cc2ccccc2)C(=O)N[C@H](C(=O)N[C@@H](CCC(N)=O)C(=O)N[C@@H](Cc2c[nH]c3ccccc23)C(=O)N[C@@H](CC(C)C)C(=O)N[C@@H](CCCC)C(=O)N[C@@H](CC(=O)O)C(=O)N[C@H](C(N)=O)[C@@H](C)O)C(C)C)NC(=O)[C@H](C)NC(=O)[C@H](C)NC(=O)[C@H](CCCNC(=N)N)NC1=O)C(=O)O)C(=O)O [compound 16] (H-H[Aib]QGTFTSDK([γGlu-γGlu-Palmitoyl])SKYLD[dPra]RAA[Lys(N3)]DFVQWL[Nle]DT-NH2; triazole 16-20; N-terminus assumed),0.042,1.13
CCCCCCCCCCCCCCCC(=O)N[C@@H](CCC(=O)N[C@@H](CCC(=O)NCCCC[C@H](NC(=O)[C@H](CC(=O)O)NC(=O)[C@H](CO)NC(=O)[C@@H](NC(=O)[C@H](Cc1ccccc1)NC(=O)[C@@H](NC(=O)CNC(=O)[C@H](CCC(N)=O)NC(=O)[C@@H](CO)NC(=O)[C@@H](N)Cc1c[nH]cn1)[C@@H](C)O)[C@@H](C)O)C(=O)N[C@@H](CO)C(=O)N[C@@H](CCCCN)C(=O)N[C@@H](Cc1ccc(O)cc1)C(=O)N[C@@H](CC(C)C)C(=O)N[C@@H](CC(=O)O)C(=O)N[C@@H](C)C(=O)N[C@@H](CCCNC(=N)N)C(=O)N[C@@H](C)C(=O)N[C@@H](C)C(=O)N[C@@H](CCC(N)=O)C(=O)N[C@@H](CC(=O)O)C(=O)N[C@@H](Cc1ccccc1)C(=O)N[C@H](C(=O)N[C@H]1CCCCn2cc(nn2)C[C@H](C(=O)N[C@H](C(N)=O)[C@@H](C)O)NC(=O)[C@H](CC(C)C)NC(=O)[C@H](CC(C)C)NC(=O)[C@H](Cc2c[nH]c3ccccc23)NC1=O)C(C)C)C(=O)O)C(=O)O [compound 24] (H-H[dS]QGTFTSDK([γGlu-γGlu-Palmitoyl])SKYLDARAAQDFV[Lys(N3)]WLL[dPra]T-NH2; triazole 24-28; N-terminus assumed),–,0.54
